SMILES strings stand for the structures.

From patent US11071727B2, “Therapeutic targeting of proteolytic cleavage of the mixed lineage leukemia gene product (MLL1) by taspase1 using kinase inhibitors” (Northwestern University, priority 2018, dated 2021) come the findings set out here.

In data set [1] the test system is MLL-AFF1, AFF4 and ELL2 occupancy. Put plainly: ChIP-seq of MLL-AFF1, AFF4 and ELL2 occupancy in SEM cells. It is filed as cell-based, human. Here is the method:
(§1) FIG. 6. CKII inhibition increases genome-wide MLL occupancy and excludes SEC recruitment in MLL leukemia cells. (A) and (B) MLL1C occupancy in CX-4945 or TTP22 treated cells were shown relative to DMSO control. […] (C) Track examples of the MLL1 occupancy at the promoter regions of ELF2 and C6orf211. (D) CX-4945 inhibition of leukemia cell proliferation. Multiple MLL leukemia (orange lines) and non-MLL leukemia (blue lines) were cultured with different doses of CX-4945 for 3 days. Cell number was determined by cell counter and normalized to DMSO control. (E) SEM cells were treated with 0, 5 or 10 μM of CX-4945 for 30 hours and western blot was performed to determine the MLL1 full-length protein levels and MLL-AF4 fusion protein levels. (F) MLL-AFF1, AFF4 and ELL2 occupancies were decreased by CX-4945 treatment in SEM cells.
ChIP-seq Analysis. 5×10^7 cells were used for each ChIP assay, as performed as previously described (Chen et al. 2015). Peaks were called with MACS v1.4.2 (Zhang et al. 2008) using default parameters and were annotated by the HOMER software (Heinz et al. 2010). Metaplots were generated using ngsplot (Shen et al. 2014). […] Differential occupancy of MLL1 was evaluated by edgeR, and peaks with Benjamini-Hochburg adjusted p-values less than 0.05 were considered to be differentially occupied. […]

In the next data set the test system is MLL1, MLL-AF4. The experiment in a line: Western blot of MLL1 full-length and MLL-AF4 fusion protein levels in SEM cells. It is filed as cell-based, human. Conditions: SEM cells, 0, 5 or 10 μM, 30 hours. Here is the method: as §1
Cell culture. All of the cell lines were purchased from the American Type Culture Collection (Rockville, Md.). 293T, MCF7 and HCT116 cell lines were maintained in Dulbecco's modified Eagle's medium (DMEM) (Gibco, Gaithersburg, Md.) supplemented with 10% fetal bovine serum (FBS) (Gibco) at 37° with 5% CO2. SEM was maintained in IMDM with 10% FBS. MM6 was maintained in RPMI1640 supplemented with 10% FBS and non-essential amino acids. MOLM13, RS4:11, MV4-11, RL, REH, U937m SU-DHL-6 and OCI-LY1 were maintained in RPMI1640 supplemented with 10% FBS. […]

The next data set concerns MLL-AF9 leukemia. Put plainly: MLL-AF9 syngeneic leukemia mouse model. It counts as in vivo. As for the experimental part: FIG. 7. CKII inhibition delays the leukemia progression and improves survival of MLL-AF9 mice and MOLM13 human leukemia mice. (A) Timeline of the MLL-AF9 leukemia mouse model and CKII inhibitor treatment. Drug treatments were started at day 10 after transplantation. (B) Kaplan-Meier survival curves of secondary transplanted C57BL/6 mice after vehicle and CX-4945 treatment at day 10. Vehicle or CX-4945 (50 mg/kg or 75 mg/kg) were administered twice daily by oral gavage for a total of twenty treatments. Leukemia was confirmed at the endpoint for each transplant mouse. The number (n) indicates the number of mice in each group. The p values were calculated using the log rank test. (C) Timeline of the MOLM13 human leukemia xenograft mice. Drug treatments were started at day 5 after transplantation. (D) Kaplan-Meier survival curves of NSGS mice after vehicle and CX-4945 treatment. Vehicle or CX-4945 (50 mg/kg) were administered twice daily by oral gavage for a total of twenty treatments. Leukemia was confirmed at the endpoint for each transplant mouse by flow cytometry, H&E staining and histology analysis. The number (n) indicates the number of mice in each group. The p value was calculated using the log rank test. (E) Taspase1 cleavage regulation of MLL1 mediated by CKII phosphorylation. MLL1 cleavage by taspase1 primed the protein to degradation pathway. […]

Regarding `O=C(O)c1ccc2c(c1)nc(Nc1cccc(Cl)c1)c1ccncc12` [CX-4945, 5-(3-chlorophenylamino)benzo[c][2,6]naphthyridine-8-carboxylic acid], the “genome-wide binding of MLL-AFF1, AFF4 and ELL2” value in data set [1] is given as “decrease”. In addition, in the data set on MLL1, MLL-AF4, the MLL1-FL protein levels result is “MLL1-FL protein levels also increased” and the MLL-AF4 protein levels entry is listed as “without altering MLL-AF4 protein levels”. In the data set with MLL-AF9 leukemia (C57BL/6 mice, 50 mg/kg or 75 mg/kg twice daily by oral gavage, twenty treatments from day 10), the “leukemia progression and survival” value is “significantly delayed the leukemia progression and improved the survival”. Besides, the “weight of the mice” value in the data set with MLL-AF9 leukemia (MLL-AF9 syngeneic mouse model, compared with vehicle control group) is recorded as “did not affect the weight of the mice”.
